# From patent US9522907B2, “Anticancer agent and process for the preparation thereof” (COUNCIL OF SCIENTIFIC & INDUSTRIAL RESEARCH, priority 2014, dated 2016)
# Columns and labels:
# HCC-2998 = assay: NCI in vitro cytotoxicity, HCC-2998; conditions: Homo sapiens
# From the text: (§3) For these compounds results are expressed as growth inhibition (GI50) values as per NCI protocol.
# SK-MEL-28 = assay: NCI in vitro cytotoxicity, SK-MEL-28; conditions: Homo sapiens
# From the text: as §3
# OVCAR-5 = assay: NCI in vitro cytotoxicity, OVCAR-5; conditions: Homo sapiens
# From the text: as §3
# OVCAR-4 = assay: NCI in vitro cytotoxicity, OVCAR-4; conditions: Homo sapiens
# From the text: as §3
# DU-145 = assay: NCI in vitro cytotoxicity, DU-145; conditions: Homo sapiens
# From the text: as §3
# U251 = assay: NCI in vitro cytotoxicity, U251; conditions: Homo sapiens, U-251
# From the text: as §3
# UACC-257 = assay: NCI in vitro cytotoxicity, UACC-257; conditions: Homo sapiens
# From the text: as §3
# HCT-15 = assay: NCI in vitro cytotoxicity, HCT-15; conditions: Homo sapiens
# From the text: as §3
# SNB-75 = assay: NCI in vitro cytotoxicity, SNB-75; conditions: Homo sapiens
# From the text: as §3
# SF-295 = assay: NCI in vitro cytotoxicity, SF-295; conditions: Homo sapiens
# From the text: as §3
# SNB-19 = assay: NCI in vitro cytotoxicity, SNB-19; conditions: Homo sapiens
# From the text: as §3
# KM12 = assay: NCI in vitro cytotoxicity, KM12; conditions: Homo sapiens
# From the text: as §3
# SR (leukemia cell line) = assay: NCI in vitro cytotoxicity, SR; conditions: Homo sapiens
# From the text: as §3
# NCI/ADR-RES = assay: NCI in vitro cytotoxicity, NCI/ADR-RES; conditions: Homo sapiens
# From the text: as §3
# ACHN = assay: NCI in vitro cytotoxicity, ACHN; conditions: Homo sapiens
# From the text: as §3
# A549/ATCC = assay: NCI in vitro cytotoxicity, A549/ATCC; conditions: Homo sapiens
# From the text: as §3
# HT29 = assay: NCI in vitro cytotoxicity, HT29; conditions: Homo sapiens, HT-29
# From the text: as §3
# SK-OV-3 = assay: NCI in vitro cytotoxicity, SK-OV-3; conditions: Homo sapiens
# From the text: as §3
# MOLT-4 = assay: NCI in vitro cytotoxicity, MOLT-4; conditions: Homo sapiens
# From the text: as §3
# HS 578T = assay: NCI in vitro cytotoxicity, HS 578T; conditions: Homo sapiens
# From the text: as §3
# LOX IMVI = assay: NCI in vitro cytotoxicity, LOX IMVI; conditions: Homo sapiens
# From the text: as §3
# UO-31 = assay: NCI in vitro cytotoxicity, UO-31; conditions: Homo sapiens
# From the text: as §3
# SF-539 = assay: NCI in vitro cytotoxicity, SF-539; conditions: Homo sapiens
# From the text: as §3
# SN 12C = assay: NCI in vitro cytotoxicity, SN 12C; conditions: Homo sapiens, SN12C
# From the text: as §3
# NCI-H460 = assay: NCI in vitro cytotoxicity, NCI-H460; conditions: Homo sapiens
# From the text: as §3
# TK-10 = assay: NCI in vitro cytotoxicity, TK-10; conditions: Homo sapiens
# From the text: as §3
# MDA-MB-468 = assay: NCI in vitro cytotoxicity, MDA-MB-468; conditions: Homo sapiens
# From the text: as §3
# NCI-H23 = assay: NCI in vitro cytotoxicity, NCI-H23; conditions: Homo sapiens
# From the text: as §3
# Renal cancer cell lines = assay: cells; assay type: cell-based; conditions: for CC50: read-out: Log10 LC50 mean graph midpoint (MG_MID) (converted)
# From the text: (§1) The mean graph midpoint values of Log10 GI50 as well as Log10 LC50 for the compounds 2i, 5i and Hoechst 33258 (NSC-322921) is listed in Table 2.
# (§2) Each cancer type represents the average of six to eight different cancer cell lines.
# [1] = system: Ovarian cancer cell lines; assay: cells; assay type: cell-based; conditions: for CC50: read-out: Log10 LC50 mean graph midpoint (MG_MID) (converted)
# From the text: as §1, §2
# [2] = system: Melanoma cancer cell lines; assay: cells; assay type: cell-based; conditions: for LC50: read-out: Log10 LC50 mean graph midpoint (MG_MID) (converted)
# From the text: as §1, §2
# Breast cancer cell lines = assay: cells; assay type: cell-based; conditions: for CC50: read-out: Log10 LC50 mean graph midpoint (MG_MID) (converted)
# From the text: as §1, §2
# CNS cancer cell lines = assay: cells; assay type: cell-based; conditions: for CC50: read-out: Log10 LC50 mean graph midpoint (MG_MID) (converted)
# From the text: as §1, §2
# [3] = system: Non-small-cell lung cancer cell lines; assay: cells; assay type: cell-based; conditions: for LC50 (lethal concentration 50%): read-out: Log10 LC50 mean graph midpoint (MG_MID) (converted)
# From the text: as §1, §2
# Colon cancer cell lines = assay: cells; assay type: cell-based; conditions: for LC50: read-out: Log10 LC50 mean graph midpoint (MG_MID) (converted)
# From the text: as §1, §2
# [4] = system: Prostate cancer cell lines; assay: cells; assay type: cell-based; conditions: for CC50: read-out: Log10 LC50 mean graph midpoint (MG_MID) (converted)
# From the text: as §1, §2
# [5] = system: Leukemia cancer cell lines; assay: cells; assay type: cell-based; conditions: for LC50 (50% lethal concentration, NCI mean graph midpoint): read-out: Log10 LC50 mean graph midpoint (MG_MID) (converted)
# From the text: as §1, §2
# OVCAR-8 = assay: NCI in vitro cytotoxicity, OVCAR-8; conditions: Homo sapiens
# From the text: as §3
# RPMI-8226 = assay: NCI in vitro cytotoxicity, RPMI-8226; conditions: Homo sapiens
# From the text: as §3
# SK-MEL-2 = assay: NCI in vitro cytotoxicity, SK-MEL-2; conditions: Homo sapiens
# From the text: as §3
# PC-3 = assay: NCI in vitro cytotoxicity, PC-3; conditions: Homo sapiens
# From the text: as §3
smiles,measurement,setting,value
"COc1cc(-c2nc(-c3ccc(-c4nc5cc(F)ccc5[nH]4)cc3)no2)cc(OC)c1OC [2i, 3-(4-(5-Fluoro-1H-benzo[d]imidazol-2-yl)phenyl)-5-(3,4,5-trimethoxyphenyl)-1,2,4-oxadiazole]",GI50,HCC-2998,6.13 µM
same,GI50,SK-MEL-28,3.78 µM
same,GI50,OVCAR-5,5.59 µM
same,GI50,OVCAR-4,2.82 µM
same,GI50,DU-145,3.96 µM
same,GI50,U251,3.03 µM
same,GI50,UACC-257,3.7 µM
same,GI50,HCT-15,3.15 µM
same,GI50,SNB-75,7.74 µM
same,GI50,SF-295,2.31 µM
same,GI50,SNB-19,5.62 µM
same,GI50,KM12,3.08 µM
same,GI50,SR (leukemia cell line),2.98 µM
same,GI50,NCI/ADR-RES,2.49 µM
same,GI50,ACHN,3.72 µM
same,GI50,A549/ATCC,3.42 µM
same,GI50,HT29,3.69 µM
same,GI50,SK-OV-3,4.12 µM
same,GI50,MOLT-4,1.99 µM
same,GI50,HS 578T,2.27 µM
same,GI50,LOX IMVI,1.65 µM
same,GI50,UO-31,2.51 µM
same,GI50,SF-539,3.37 µM
same,GI50,SN 12C,3.59 µM
same,GI50,NCI-H460,2.97 µM
same,GI50,TK-10,8.27 µM
same,GI50,MDA-MB-468,3.01 µM
same,GI50,NCI-H23,2.5 µM
same,CC50,Renal cancer cell lines; Homo sapiens,79.4 µM
same,Log10 GI50 mean graph midpoint (MG_MID),"Renal cancer cell lines; Renal, average of cell lines of the cancer type",−5.45
same,CC50,[1]; Homo sapiens,87.1 µM
same,Log10 GI50 mean graph midpoint (MG_MID),"[1]; Ovarian, average of cell lines of the cancer type",−5.49
same,LC50,[2]; Homo sapiens,35.5 µM
same,Log10 GI50 mean graph midpoint (MG_MID),"[2]; Melanoma, average of cell lines of the cancer type",−5.55
same,Log10 GI50 mean graph midpoint (MG_MID),"Breast cancer cell lines; Breast, average of cell lines of the cancer type",−5.55
same,CC50,Breast cancer cell lines; Homo sapiens,93.3 µM
same,Log10 GI50 mean graph midpoint (MG_MID),"CNS cancer cell lines; CNS, average of cell lines of the cancer type",−5.39
same,CC50,CNS cancer cell lines; Homo sapiens,91.2 µM
same,LC50 (lethal concentration 50%),[3]; Homo sapiens,75.9 µM
same,Log10 GI50 mean graph midpoint (MG_MID),"[3]; Non-small-cell lung, average of cell lines of the cancer type",−5.47
same,Log10 GI50 mean graph midpoint (MG_MID),"Colon cancer cell lines; Colon, average of cell lines of the cancer type",−5.44
same,LC50,Colon cancer cell lines; Homo sapiens,75.9 µM
same,CC50,[4]; Homo sapiens,≥ 100 µM
same,Log10 GI50 mean graph midpoint (MG_MID),"[4]; Prostate, average of cell lines of the cancer type",−5.51
same,"LC50 (50% lethal concentration, NCI mean graph midpoint)",[5]; Homo sapiens,≥ 100 µM
same,Log10 GI50 mean graph midpoint (MG_MID),"[5]; Leukemia, average of cell lines of the cancer type",−5.64
same,GI50,OVCAR-8,2.36 µM
same,GI50,RPMI-8226,1.94 µM
same,GI50,SK-MEL-2,4.21 µM
same,GI50,PC-3,2.33 µM
"COc1ccc2[nH]c(-c3ccc(-c4noc(-c5cc(OC)c(OC)c(OC)c5)n4)cc3)nc2c1 [5i, 3-(4-(5-Methoxy-1H-benzo[d]imidazol-2-yl)phenyl)-5-(3,4,5-trimethoxyphenyl)-1,2,4-oxadiazole]",GI50,HCC-2998,35.5 µM
same,GI50,SK-MEL-28,9.59 µM
same,GI50,OVCAR-5,16.7 µM
same,GI50,OVCAR-4,1.88 µM
same,GI50,DU-145,9.48 µM
same,GI50,U251,1.68 µM
same,GI50,UACC-257,17.1 µM
same,GI50,HCT-15,1.49 µM
same,GI50,SNB-75,12.5 µM
same,GI50,SF-295,15 µM
same,GI50,SNB-19,1.27 µM
same,GI50,KM12,7.52 µM
same,GI50,SR (leukemia cell line),0.71 µM
same,GI50,NCI/ADR-RES,3.32 µM
same,GI50,ACHN,28.2 µM
same,GI50,A549/ATCC,5.65 µM
same,GI50,HT29,2.7 µM
same,GI50,SK-OV-3,25.3 µM
same,GI50,MOLT-4,5.29 µM
same,GI50,HS 578T,9.49 µM
same,GI50,LOX IMVI,13.3 µM
same,GI50,UO-31,1.89 µM
same,GI50,SF-539,2 µM
same,GI50,SN 12C,13.2 µM
same,GI50,NCI-H460,4.6 µM
same,GI50,TK-10,4.62 µM
same,GI50,MDA-MB-468,6.54 µM
same,GI50,NCI-H23,4.1 µM
same,CC50,Renal cancer cell lines; Homo sapiens,74.1 µM
same,GI50,"Renal cancer cell lines; Homo sapiens, Renal, average of cell lines of the cancer type, read-out: Log10 GI50 mean graph midpoint (MG_MID) (converted)",14.5 µM
same,CC50,[1]; Homo sapiens,67.6 µM
same,GI50,"[1]; Homo sapiens, Ovarian, average of cell lines of the cancer type, read-out: Log10 GI50 mean graph midpoint (MG_MID) (converted)",7.59 µM
same,LC50,[2]; Homo sapiens,83.2 µM
same,GI50,"[2]; Homo sapiens, Melanoma, average of cell lines of the cancer type, read-out: Log10 GI50 mean graph midpoint (MG_MID) (converted)",7.59 µM
same,CC50,Breast cancer cell lines; Homo sapiens,79.4 µM
same,GI50,"Breast cancer cell lines; Homo sapiens, Breast, average of cell lines of the cancer type, read-out: Log10 GI50 mean graph midpoint (MG_MID) (converted)",3.39 µM
same,CC50,CNS cancer cell lines; Homo sapiens,44.7 µM
same,GI50,"CNS cancer cell lines; Homo sapiens, CNS, average of cell lines of the cancer type, read-out: Log10 GI50 mean graph midpoint (MG_MID) (converted)",6.31 µM
same,LC50 (lethal concentration 50%),[3]; Homo sapiens,79.4 µM
same,GI50,"[3]; Homo sapiens, Non-small-cell lung, average of cell lines of the cancer type, read-out: Log10 GI50 mean graph midpoint (MG_MID) (converted)",8.71 µM
same,LC50,Colon cancer cell lines; Homo sapiens,85.1 µM
same,GI50,"Colon cancer cell lines; Homo sapiens, Colon, average of cell lines of the cancer type, read-out: Log10 GI50 mean graph midpoint (MG_MID) (converted)",4.79 µM
same,CC50,[4]; Homo sapiens,91.2 µM
same,GI50,"[4]; Homo sapiens, Prostate, average of cell lines of the cancer type, read-out: Log10 GI50 mean graph midpoint (MG_MID) (converted)",14.1 µM
same,"LC50 (50% lethal concentration, NCI mean graph midpoint)",[5]; Homo sapiens,100 µM
same,GI50,"[5]; Homo sapiens, Leukemia, average of cell lines of the cancer type, read-out: Log10 GI50 mean graph midpoint (MG_MID) (converted)",3.31 µM
same,GI50,OVCAR-8,4.93 µM
same,GI50,RPMI-8226,6.02 µM
same,GI50,SK-MEL-2,18.9 µM
same,GI50,PC-3,240 µM
